1 molecule from ChEMBL document CHEMBL5338705, “Discovery of 1,3,4-oxadiazole derivatives containing a bisamide moiety as a novel class of potential cardioprotective agents” (Eur J Med Chem, 2022) can be followed below.

Data set [1] has as its system H9c2. In words: Cytoprotective activity against H2O2-induced oxidative damage in rat H9c2 cells assessed as cell viability at 20 uM preincubated for 24 hrs followed by H2O2 treatment for another 1.5 hrs by MTT assay (reference value: 32.52 to 44.40%). Format: functional. As to conditions: time 25.5 hrs, read-out: Activity. (In general: Formazan colour is commonly taken as a measure of viable cells.)

Data set [2] deals with H9c2. In words: Cytoprotective activity against H2O2-induced oxidative damage in rat H9c2 cells assessed as fold reduction in cell viability at 20 uM preincubated for 24 hrs followed by H2O2 treatment for another 1.5 hrs by MTT assay. The class given is functional. Conditions: time 25.5 hrs.
For data set [3], the system named is H9c2. In words: Cytotoxicity against rat H9c2 cells at 10 to 100 uM measured after 48 to 72 hrs by MTT assay. Format: toxicity, cell-based. Conditions: h9c2, 100 µM, dose lower 10 µM, time lower 48 hrs, dose upper 100 µM, time upper 72 hrs.
For data set [4], the system named is H9c2. In words: Cytoprotective activity against H2O2-induced oxidative damage in rat H9c2 cells assessed as cell viability preincubated for 24 hrs followed by H2O2 treatment for another 1.5 hrs by MTT assay. The class given is functional, cell-based. As to conditions: dose 0-80 µM, time 25.5 hrs.
In data set [5] the test system is H9c2. In words: Cytoprotective activity against H2O2-induced oxidative damage in rat H9c2 cells assessed as reduction in cell viability at 100 uM incubated for 24 hrs followed by low concentration of H2O2 treatment and measured after 24 hrs by MTT assay relative to control. The class given is functional. As to conditions: time 48 hrs.
The subject of data set [6] is H9c2. In words: Protection against H2O2-induced cell damage in rat H9c2 cells assessed as recovery of cell shrinkage at 100 uM. Format: functional, cell-based.
Data set [7] deals with H9c2. In words: Protection against H2O2-induced cell damage in rat H9c2 cells assessed as recovery of cell death at 100 uM. Format: functional, cell-based.
Data set [8] concerns H9c2. In words: Downregulation of H2O2 induced ANP level in rat H9c2 cells measured after 1.5 hrs by qRT-PCR analysis. The class given is functional, cell-based. As to conditions: dose <= 80.0 µM. In general terms: Real-time PCR tracks product formation cycle by cycle.
Data set [9] concerns H9c2. In words: Downregulation of H2O2 induced BNP level in rat H9c2 cells measured after 1.5 hrs by qRT-PCR analysis. Format: functional, cell-based. Conditions: dose <= 80.0 µM.
For data set [10], the system named is H9c2. In words: Anti-apoptotic activity in H202 induced rat H9c2 cells assessed as decrease in Bcl2 level at 20 to 80 uM measured after 1.5 hrs by Western blot analysis. Conditions: dose 20-80 µM. The class given is functional, cell-based. (In general: In western blotting, separated proteins are transferred to a membrane and probed.)
For data set [11], the system named is H9c2. In words: Anti-apoptotic activity in H202 induced rat H9c2 cells assessed as increase in Bax level at 20 to 80 uM measured after 1.5 hrs by Western blot analysis. The class given is functional, cell-based. Conditions: dose 20-80 µM.
Data set [12] deals with H9c2. In words: Anti-apoptotic activity in H202 induced rat H9c2 cells assessed as increase in caspase 3 level at 20 to 80 uM measured after 1.5 hrs by Western blot analysis. Format: functional, cell-based. Conditions: dose 20-80 µM.
Data set [13] deals with H9c2. In words: Anti-apoptotic activity in H202 induced rat H9c2 cells assessed as increase in caspase 9 level at 20 to 80 uM measured after 1.5 hrs by Western blot analysis. The class given is functional, cell-based. As to conditions: dose 20-80 µM.
Data set [14] has as its system H9c2. In words: Antioxidant activity in H2O2-induced oxidative stress in rat H9c2 cells assessed as increase in expression of Nrf2 level at upto 80 uM measured after 1.5 hrs by Western blotting analysis. Format: functional, cell-based.
In data set [15] the test system is H9c2. In words: Antioxidant activity in H2O2-induced oxidative stress in rat H9c2 cells assessed as increase in expression of NQO1 level at upto 80 uM measured after 1.5 hrs by Western blotting analysis. The class given is functional, cell-based.

Active and inactive are the calls of the source. The rule behind the calls is not given here.

As for `COc1ccc(NC(=O)NC(=O)CSc2nnc(-c3ccccc3)o2)cc1`, the viability at 20 µM in the data set on H9c2 [1] was found to be 88.4%. Besides, the “fold change (FC)” value with H9c2 [2] is 2.69. Besides, the Activity result in the data set on H9c2 [3] is “Non-Toxic”; in the data set with H9c2 [4], “Dose-Dependent Effect”; in the data set on H9c2 [5], 48%; with H9c2 [8], “Dose-Dependent Effect”; with H9c2 [9], “Dose-Dependent Effect”. Besides, the result with H9c2 [6], in the data set with H9c2 [7], in the data set with H9c2 [10], in the data set on H9c2 [11], in the data set on H9c2 [12] and in the data set with H9c2 [13] was Active. In addition, the outcome in the data set with H9c2 [14] and in the data set on H9c2 [15] was Active.
